Experimental data from patent US20210330611A1, “THERAPY FOR NEUROLOGICAL DISEASES/DISORDERS” (priority 2020, published 2021).
Where “and” joins values, the source holds several entries; their conditions need not be identical. Identical values can stand only once. Counter-ions that a name gives are not always drawn. Like-named read-outs stand apart in the source and are kept apart here.

Tests used:
[1] = test system: primary rat microglia; assay: Cell toxicity (dead cells, size <150 μm2) in coated fibrin (cFib) assay; details: primary microglia HTS;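 further: share of dead cells sized under 150 µm2 at 10 µM in fibrin-stimulated microglia HTS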
[2] = test system: fibrin- and LPS-induced microglia activation; assay: cells; format: cell-based, rat
[3] = test system: fibrin-induced microglia activation; assay: Image-based assay of fibrin-induced microglia activation (HTS and dose response); format: cell-based, rat; details: for inhibition at 10 µM: Rattus norvegicus, Microglia, read-out: Fibrin % inhibition
[4] = test system: primary rat microglia
[5] = test system: LPS-induced microglia activation; assay: Image-based assay of LPS-induced microglia activation (HTS and dose response); format: cell-based, rat
[6] = fibrin assay, dead cells (size <150 μm2)
[7] = quadrant by fibrin and LPS inhibition, HTS at 10 μM
[8] = primary microglia HTS, fibrin stimulation, compounds at 10 μM
[9] = primary microglia HTS, LPS stimulation, compounds at 10 μM
[10] = Rattus norvegicus, Microglia, primary microglia HTS, LPS stimulation, compounds at 10 μM; read-out: LPS % inhibition
[11] = fibrin stimulation, cell size <150 μm2 as marker of toxicity
[12] = classification by fibrin and LPS inhibition in HTS
[13] = primary microglia HTS, fibrin stimulation, cell size >800 μm2 as marker of activation
[14] = Rattus norvegicus, Microglia, 48 h; read-out: LPS % inhibition
[15] = fibrin assay, dead cells (size <150 μm2), compounds at 10 μM
[16] = classification by fibrin and LPS inhibition, HTS at 10 μM
[17] = primary microglia HTS, LPS stimulation, compounds at 10 μM; 10 µM
[18] = primary microglia HTS, fibrin stimulation, compounds at 10 μM, 10 µM

CC(=O)OC1CN2CCC1CC2.Cl (stereo not shown) [Aceclidine Hydrochloride, Aceclidine]
Fibrin % cell toxicity [1, 6]: 1% | Quadrant (FIG. 5b) [2, 7]: Q4 | Fibrin % inhibition [3, 8]: 2% | LPS % cell toxicity [4]: 0% | LPS % inhibition [5, 9]: 0%

CCOC(=O)[C@H](CCc1ccccc1)N[C@H]1CCc2ccccc2N(CC(=O)O)C1=O [Benazepril]
Fibrin % cell toxicity [1, 6]: 1% | Quadrant (FIG. 5b) [2, 7]: Q4 | inhibition at 10 µM [3, 8]: 0% | LPS % cell toxicity ([4]; rat): 1% | inhibition at 10 µM [5, 10]: 26%

CC(Oc1ccccc1)C(=O)N[C@@H]1C(=O)N2[C@@H]1SC(C)(C)[C@@H]2C(=O)O (stereo partly shown) [Phenethicillin Potassium]
Fibrin % cell toxicity [1, 11]: 0% | Quadrant (FIG. 5b) [2, 12]: Q4 | inhibition at 10 µM [3, 13]: -2% | LPS % cell toxicity ([4]; rat): 0% | inhibition at 10 µM [5, 14]: 3%

OCC(O)CN1CCN(c2ccccc2)CC1 (stereo not shown) [Dropropizine]
Fibrin % cell toxicity [1, 15]: 1% | Quadrant (FIG. 5b) [2, 16]: Q4 | inhibition at 10 µM [3, 8]: -26% | LPS % cell toxicity ([4]; rat): 0% | inhibition at 10 µM [5, 10]: 11%

OC[C@@H](O)[C@@H](O)CO [Erythritol]
Fibrin % cell toxicity [1, 15]: 1% | Quadrant (FIG. 5b) [2, 16]: Q4 | inhibition at 10 µM [3, 8]: -25% | LPS % cell toxicity ([4]; rat): 0% | inhibition at 10 µM [5, 10]: 10%

C=CCSCC1Nc2cc(Cl)c(S(N)(=O)=O)cc2S(=O)(=O)N1 (stereo not shown) [Althiazide]
Fibrin % cell toxicity [1, 6]: 1% | Quadrant (FIG. 5b) [2, 7]: Q4 | inhibition at 10 µM [3, 8]: -11% | LPS % cell toxicity ([4]; rat): 1% | inhibition at 10 µM [5, 10]: 12%

O=C1CC[C@@]2(O)[C@H]3Cc4ccc(O)c5c4[C@@]2(CCN3CC2CC2)[C@H]1O5 [Naltrexone Hydrochloride]
Fibrin % cell toxicity [1, 6]: 4% | Quadrant (FIG. 5b) [2, 7]: Q2 | inhibition at 10 µM [3, 8]: 107% | LPS % cell toxicity ([4]; rat): 2% | inhibition at 10 µM [5, 10]: 79%

N[C@@H](COP(=O)(O)O)C(=O)O [Phosphonoserine]
Fibrin % cell toxicity [1, 11]: 1% | Quadrant (FIG. 5b) [2, 12]: Q4 | inhibition at 10 µM [3, 13]: -6% | LPS % cell toxicity ([4]; rat): 0% | inhibition at 10 µM [5, 14]: 10%

CN(C)CCc1c[nH]c2ccc(Cn3cncn3)cc12 [Rizatriptan]
Fibrin % cell toxicity [1, 11]: 1% | Quadrant (FIG. 5b) [2, 12]: Q4 | inhibition at 10 µM [3, 13]: -9% | LPS % cell toxicity ([4]; rat): 0% | inhibition at 10 µM [5, 14]: 10%

O=C1CC[C@@H](C(=O)O)N1 [Pidolic Acid]
Fibrin % cell toxicity [1, 11]: 1% | Quadrant (FIG. 5b) [2, 12]: Q4 | inhibition at 10 µM [3, 13]: -57% | LPS % cell toxicity ([4]; rat): 0% | inhibition at 10 µM [5, 14]: 15%

Cc1ccc(-c2ncc(Cl)cc2-c2ccc(S(C)(=O)=O)cc2)cn1 [Etoricoxib]
Fibrin % cell toxicity [1, 15]: 1% | Quadrant (FIG. 5b) [2, 16]: Q4 | inhibition at 10 µM [3, 8]: 15% | LPS % cell toxicity ([4]; rat): 0% | inhibition at 10 µM [5, 10]: -4%

C=CC(N)CCC(=O)O (racemic) [(±)-gamma-vinyl Gaba, Vigabatrin]
Fibrin % cell toxicity [1, 6]: 1% | Quadrant (FIG. 5b) [2, 7]: Q4 | Fibrin % inhibition [3, 8]: 8% | LPS % cell toxicity [4]: 0% | LPS % inhibition [5, 9]: 12%

COc1ccc(C[C@H](N)C(=O)N[C@H]2[C@@H](O)[C@H](n3cnc4c(N(C)C)ncnc43)O[C@@H]2CO)cc1.Cl.Cl
Fibrin % cell toxicity [1, 6]: 66% | Quadrant (FIG. 5b) [2, 7]: Q2 | LPS % cell toxicity [4]: 52% | LPS % inhibition [5, 9]: 124%

CO[C@H]1O[C@@H]2O[C@@]3(C)CC[C@H]4[C@H](C)CC[C@@H]([C@H]1C)[C@@]24OO3 [Artemether]
Fibrin % cell toxicity [1, 6]: 1% and 0% | Quadrant (FIG. 5b) [2, 7]: Q4 | LPS % cell toxicity ([4]; rat): 0% | LPS % inhibition [5, 17]: 0% and 4%

CCOC(=O)c1cncn1[C@H](C)c1ccccc1 [Etomidate]
Fibrin % cell toxicity [1, 15]: 0% | Quadrant (FIG. 5b) [2, 16]: Q4 | Fibrin % inhibition [3, 18]: −19% and −24% | LPS % cell toxicity ([4]; rat): 0%

C#CCN(C)[C@H](C)Cc1ccccc1 [Selegiline]
Fibrin % cell toxicity [1, 11]: 0% and 1% | Quadrant (FIG. 5b) [2, 12]: Q4 | LPS % cell toxicity ([4]; rat): 0%

COc1ccccc1OCC(O)CN1CCN(CC(=O)Nc2c(C)cccc2C)CC1 (stereo not shown) [Ranolazine, Ranolazine Dihydrochloride]
Fibrin % cell toxicity [1, 11]: 0% and 1% | Quadrant (FIG. 5b) [2, 12]: Q4 | LPS % cell toxicity [4]: 0% | LPS % inhibition [5]: 12% and 2%

OC[C@@H](O)[C@@H](O)[C@H](O)[C@@H](O)CO [Sorbitol]
Fibrin % cell toxicity [1, 11]: 1% and 0% | Quadrant (FIG. 5b) [2, 12]: Q4 | LPS % cell toxicity ([4]; rat): 0%

CSCC[C@H](NC(=O)[C@H](Cc1c[nH]c2ccccc12)NC(=O)CCNC(=O)OC(C)(C)C)C(=O)N[C@@H](CC(=O)O)C(=O)N[C@@H](Cc1ccccc1)C(N)=O [Pentagastrin]
Fibrin % cell toxicity [1, 11]: 1% | LPS % cell toxicity [4]: 1%

O=C(O)Cc1ccccc1 [Phenylacetic acid]
Fibrin % cell toxicity [1, 11]: 1% | Quadrant (FIG. 5b) [2, 12]: Q4 | LPS % cell toxicity ([4]; rat): 0%

CCCCOc1ccc(C(=O)CCN2CCCCC2)cc1 [Dyclonine]
Fibrin % cell toxicity [1, 15]: 1% | Quadrant (FIG. 5b) [2, 16]: Q4 | LPS % cell toxicity ([4]; rat): 0% | LPS % inhibition [5, 17]: 12% and 5%

COc1ccc(CC2c3cc(OC)c(OC)cc3CC[N+]2(C)CCC(=O)OCCCCCOC(=O)CC[N+]2(C)CCc3cc(OC)c(OC)cc3C2Cc2ccc(OC)c(OC)c2)cc1OC (stereo not shown) [Atracurium Besylate]
Fibrin % cell toxicity [1, 6]: 0% and 1% | Quadrant (FIG. 5b) [2, 7]: Q4 | Fibrin % inhibition [3, 18]: −3% and 2% | LPS % cell toxicity ([4]; rat): 0%

C[C@H]1[C@H](NC(=O)/C(=N\OC(C)(C)C(=O)O)c2csc(N)n2)C(=O)N1S(=O)(=O)O [Aztreonam]
Fibrin % cell toxicity [1, 6]: 1% and 0% | Quadrant (FIG. 5b) [2, 7]: Q4 | LPS % cell toxicity ([4]; rat): 0%

CCN(C)C(=O)Oc1cccc([C@H](C)N(C)C)c1 [Rivastigmine]
Fibrin % cell toxicity [1, 11]: 1% | Quadrant (FIG. 5b) [2, 12]: Q4 | LPS % cell toxicity ([4]; rat): 0% | inhibition at 10 µM [5, 14]: 5%

CSc1ccc2c(c1)N(CCC1CCCCN1C)c1ccccc1S2 (stereo not shown) [Thioridazine hydrochloride, reference compound]
Activity [2]: fib/LPS | Quadrant (FIG. 5b) [2]: Q2 | inhibition at 10 µM [3]: 116% | LPS % cell toxicity ([4]; rat): 73% | inhibition at 10 µM ([5]; Rattus norvegicus, Microglia, 48 h, read-out: LPS % inhibition): 118%

OCCN(CCO)c1nc(N2CCCCC2)c2nc(N(CCO)CCO)nc(N3CCCCC3)c2n1 [Dipyridamole]
Quadrant (FIG. 5b) [2]: Q4 | inhibition at 10 µM [3]: 11% | LPS % cell toxicity ([4]; rat): 0% | inhibition at 10 µM ([5]; Rattus norvegicus, Microglia, read-out: LPS % inhibition): 6%

CC1CNc2c(cccc2S(=O)(=O)N[C@@H](CCCNC(=N)N)C(=O)N2CC[C@@H](C)C[C@@H]2C(=O)O)C1 (stereo partly shown) [Argatroban]
Quadrant (FIG. 5b) [2, 7]: Q4 | inhibition at 10 µM [3, 8]: -10% | LPS % cell toxicity ([4]; rat): 0% | inhibition at 10 µM [5, 10]: 8%

O=C(N[C@H](CO)[C@H](O)c1ccc([N+](=O)[O-])cc1)C(Cl)Cl [Chloramphenicol]
Quadrant (FIG. 5b) ([2]; primary HTS, 10 μM): Q4 | inhibition at 10 µM ([3]; primary HTS, 10 μM, fibrin-stimulated primary microglia): 19% | LPS % cell toxicity ([4]; rat): 0% | inhibition at 10 µM ([5]; Rattus norvegicus, Microglia, primary HTS, 10 μM, LPS-stimulated primary microglia; read-out: LPS % inhibition): 6%

CC1(C)[C@@H](O)CC[C@]2(C)[C@H]3C(=O)C=C4[C@@H]5C[C@@](C)(C(=O)O)CC[C@]5(C)CC[C@@]4(C)[C@]3(C)CC[C@@H]12 [Enoxolone]
Quadrant (FIG. 5b) [2, 16]: Q4 | inhibition at 10 µM [3, 8]: -40% | LPS % cell toxicity ([4]; rat): 0% | inhibition at 10 µM [5, 10]: 7%

CCN(CC)Cc1cc(Nc2ccnc3cc(Cl)ccc23)ccc1O [Amodiaquine Dihydrochloride]
Quadrant (FIG. 5b) ([2]; quadrant by fibrin and LPS inhibition in HTS of 1907 compounds): Q1 | inhibition at 10 µM ([3]; primary microglia HTS, fibrin stimulation, increased cell size (>800 μm^2) as marker of activation): 4% | LPS % cell toxicity ([4]; rat): 85% | inhibition at 10 µM ([5]; Rattus norvegicus, Microglia, 48 h, primary microglia HTS, LPS stimulation; increased cell size (>800 μm^2) as marker of activation; read-out: LPS % inhibition): 114%
